One test relates to PI 3-kinase. The experiment in a line: PI 3-kinase activity after dual ligation of CR3 in human neutrophils (ELISA). It is filed as cell-based. The conditions noted are these: dual ligation plus inhibitor: LY294002 50 μM, Piceatannol 25 μM; one hour.
The test system of test [1] is low-grade or slow-growing NHL. The conditions noted are these: 166 patients with advanced low-grade or slow-growing NHL, cited from earlier work.

Procedure for PI 3-kinase: Human neutrophils were stimulated with anti-M1/70 mAb (1 μg/ml) followed with goat-anti-rat Ig (5 μg/ml) in the presence or absence of the 25 kD active moiety of β-glucan (10 μg/ml) at 37° C. […] For measurement of PI 3-kinase activity, cells were stimulated for one hour and aliquots of cell lysates adjusted for protein concentration (500 μg of protein) were incubated for two hours at 4° C. with anti-PI 3-kinase p85 antibody, and immune complexes were adsorbed onto protein A-agarose for three hours. The complexes were then washed twice with lysis buffer and three times with 10 mM Tris-HCl, pH 7.4. To ensure that PI 3-kinase levels remained equivalent at the end of the immunoprecipitation, 10% from each treatment sample were collected during the last wash in a separate tube and analyzed by SDS-PAGE and immunoblotting with Abs to the p85 PI 3-kinase subunit. […] In brief, cell lysates were prepared and PI-3K was immunoprecipitated with antibody against the p85 subunit and incubated with PI(4,5)P2 (phosphatidylinositol-4,5-diphosphate). […]
Additionally, human peripheral blood neutrophils were stimulated with M1/70 mAb followed by secondary Ab (with or without 25 kD β-glucan) or 25 kD β-glucan alone for one hour. […] The immunoprecipitates were analyzed on SDS-PAGE gel and blotted with anti-PI 3-kinase p85 mAb. The immunoprecipitates were also measured for PI 3-kinase activity by ELISA. […]

Regarding `O=c1cc(N2CCOCC2)oc2c(-c3ccccc3)cccc12` [LY294002], the “PI 3-kinase activity (level of PI(3,4,5)P3)” value in the test on PI 3-kinase stood at 9.05 ± 1.14 µM.

Regarding `Oc1cc(O)cc(/C=C/c2ccc(O)c(O)c2)c1` [Piceatannol], the “PI 3-kinase activity (level of PI(3,4,5)P3)” value in the test with PI 3-kinase is 17.1 ± 1.5 µM.

For “rituximab: monoclonal antibody used to treat non-Hodgkin's lymphoma”, the “patients having complete remission” value in test [1] is recorded as 6%. The “patients whose tumors shrunk by at least one half” value in test [1] (those who completed treatment) is on record as 48%.

Values taken from US20090047288A1, “Glucan compositions and methods of enhancing CR3 dependent neutrophil-mediated cytotoxicity” (priority 2006, published 2009).
